Test results as given in BindingDB's records for PubMed 36416208 (n/a, 2022).

Biological target: Serine/threonine-protein kinase PAK 1 (Homo sapiens, UniProt Q13153)
Test: Inhibition of human recombinant PAK1 assessed as phosphorylation FRET peptide substrate measured after 60 mins

Serine/threonine-protein kinase PAK 1, sequence (Q13153 whole entry): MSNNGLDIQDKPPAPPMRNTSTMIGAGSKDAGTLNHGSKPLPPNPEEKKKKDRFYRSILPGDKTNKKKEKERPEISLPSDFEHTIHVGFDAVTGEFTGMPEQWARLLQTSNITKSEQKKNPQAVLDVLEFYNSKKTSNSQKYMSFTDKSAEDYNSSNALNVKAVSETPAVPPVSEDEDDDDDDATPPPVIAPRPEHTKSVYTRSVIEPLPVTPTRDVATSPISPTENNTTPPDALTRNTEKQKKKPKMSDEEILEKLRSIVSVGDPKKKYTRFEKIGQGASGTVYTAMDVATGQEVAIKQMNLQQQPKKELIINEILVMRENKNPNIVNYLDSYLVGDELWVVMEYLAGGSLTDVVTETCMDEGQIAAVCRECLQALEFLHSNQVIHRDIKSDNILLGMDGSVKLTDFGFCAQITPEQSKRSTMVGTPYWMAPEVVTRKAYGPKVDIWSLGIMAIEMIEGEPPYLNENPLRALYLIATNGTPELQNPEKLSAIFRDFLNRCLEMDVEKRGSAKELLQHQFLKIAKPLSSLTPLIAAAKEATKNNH

`CN1C(=O)CCC(N2C(=O)c3cccc(NCCCCCCCCNC(=O)N4CC[C@H](NC5=Nc6cc(F)ccc6N(CC(F)F)c6ccc(Cl)cc65)C4)c3C2=O)C1=O` (stereo partly specified) showed an IC50 of 233 nM.
